Measurements reported in ChEMBL document CHEMBL1201862, “PubChem BioAssay data set” (2004).
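Step 1: Grow cells in 96-well plates. Step 2: Expose to compound for 48 hours at 5 concentrations. Step 3: Interpolate endpoints linearly; if unreached, use highest concentration. Abbreviation: GI50, concentration required for 50% inhibition of growth.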 Calls of active or inactive are those of the source. No stated cut-off is given here; in the data, active = GI50 up to about 1.1 µM and inactive = higher.

Assays:
Assay in all cases: NCI anticancer screen, dose series, 48 h
[1] = test system: A549
[2] = test system: CAKI-1
[3] = test system: COLO 205
[4] = test system: EKVX
[5] = test system: KM12
[6] = test system: LOX IMVI
[7] = test system: MOLT-4
[8] = test system: NCI-H23
[9] = test system: OVCAR-4
[10] = test system: SF-268
[11] = test system: SF-539
[12] = test system: SK-MEL-2
[13] = test system: SK-MEL-5
[14] = test system: SNB-19
[15] = test system: UACC-62
[16] = test system: UO-31
[17] = test system: HOP-62
[18] = test system: SK-OV-3
[19] = test system: CCRF-CEM

Measured: GI50

O=S(=O)(Cc1cnc(O)nc1O)Cc1cnc(O)nc1O
inactive: [1] > 100 µM | [2] > 100 µM | [3] > 100 µM | [4] > 100 µM | [5] > 100 µM | [6] > 100 µM | [7] > 100 µM | [8] > 100 µM | [9] > 100 µM | [10] > 100 µM | [11] > 100 µM | [12] > 100 µM | [13] > 100 µM | [14] > 100 µM | [15] > 100 µM | [16] > 100 µM

COC(=O)[C@@H]1CCCN1CCN1CCC[C@H]1C(=O)OC
inactive: [1] > 100 µM | [2] > 100 µM | [3] > 100 µM | [17] > 100 µM | [5] > 100 µM | [7] > 100 µM | [8] > 100 µM | [9] > 100 µM | [10] > 100 µM | [11] > 100 µM | [12] > 100 µM | [13] > 100 µM | [18] > 100 µM | [14] > 100 µM | [15] > 100 µM | [16] > 100 µM

O=C(CC(Cl)(Cl)C(Cl)(Cl)Cl)c1ccccc1
inactive: [1] 17.8 µM | [2] 2.3 µM | [3] 3.24 µM | [17] 4.21 µM | [5] 4.18 µM | [6] 1.83 µM | [7] 3.17 µM | [8] 3.88 µM | [9] 2.22 µM | [10] 11.7 µM | [11] 16.2 µM | [12] 10.1 µM | [13] 12 µM | [18] 18.4 µM | [14] 17.4 µM | [15] 2.74 µM | [16] 3.94 µM

COc1ccc(C(OCC2OC(n3ccc(NC(=O)c4ccccc4)nc3=O)CC2OP2(=S)SCCS2)(c2ccccc2)c2ccc(OC)cc2)cc1 (stereo unspecified)
inactive: [1] 56.2 µM | [3] > 10 µM | [4] 34.5 µM | [17] 20.7 µM | [6] 14.9 µM | [7] 37.5 µM | [8] 43.2 µM | [9] 30.1 µM | [10] 21.2 µM | [12] 43.6 µM | [13] 22.4 µM | [18] 25.2 µM | [14] 29.6 µM | [15] 16.7 µM | [16] > 100 µM

S=C1CC(c2ccccc2)Sc2cc(Cl)ccc2N1 (stereo unspecified)
inactive: [1] 5.68 µM | [2] 7.71 µM | [19] 1.36 µM | [3] 5.02 µM | [4] 20.7 µM | [17] 5.61 µM | [5] 3.97 µM | [6] 4.09 µM | [7] 1.51 µM | [8] 5.41 µM | [9] 13.2 µM | [10] 6.84 µM | [13] 5.64 µM | [18] 7.35 µM | [14] 10.8 µM | [15] 5.56 µM | [16] 44.5 µM
